The values that follow come from BindingDB's records for doi:10.7270/Q2P26WT9 (The Scripps Research Institute Molecular Screening Center, 2014).

This assay has as its target T1, RNA-editing ligase 1, mitochondrial (Trypanosoma brucei brucei, UniProt P86926).
T1 sequence (P86926 whole entry): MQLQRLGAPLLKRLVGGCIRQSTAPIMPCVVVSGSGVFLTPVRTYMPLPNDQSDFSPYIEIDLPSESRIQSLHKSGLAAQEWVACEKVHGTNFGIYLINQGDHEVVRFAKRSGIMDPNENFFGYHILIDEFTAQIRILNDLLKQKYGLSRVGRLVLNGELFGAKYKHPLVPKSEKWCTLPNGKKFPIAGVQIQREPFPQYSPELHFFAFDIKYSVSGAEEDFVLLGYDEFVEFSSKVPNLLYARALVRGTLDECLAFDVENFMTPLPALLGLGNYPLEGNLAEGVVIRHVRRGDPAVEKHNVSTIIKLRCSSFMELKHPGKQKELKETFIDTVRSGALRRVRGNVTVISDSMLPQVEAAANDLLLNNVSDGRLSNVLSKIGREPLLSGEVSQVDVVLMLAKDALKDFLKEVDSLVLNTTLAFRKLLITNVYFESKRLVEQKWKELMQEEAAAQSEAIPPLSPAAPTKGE
As to the kind of experiment: TbREL1 ligase inhibitors, dose response, biochemical, fluorescence, Trypanosoma brucei (AID 1117295).
Usually IC50 stands for the point on the concentration scale where inhibition reaches its midpoint. In the case of `Oc1ccccc1CN=Nc1cc(N2CCCC2)nc(N2CCCC2)n1` [(6E)-6-[[[2,6-bis(1-pyrrolidinyl)-4-pyrimidinyl]hydrazo]methylidene]-1-cyclohexa-2,4-dienone], the IC50 is greater than 96.6 µM.
In the case of `COc1ccc(Cn2c(Nc3cc(Cl)ccc3OC)c3[nH]cccc-3c2=O)cc1` [7-[(5-chloranyl-2-methoxy-phenyl)amino]-6-[(4-methoxyphenyl)methyl]-7H-pyrrolo[3,4-b]pyridin-5-one] it was 16.1 µM.
As to `NC(=NNC=c1ccc(=C2C=CC(=O)C(C(=O)O)=C2)o1)N[N+](=O)[O-]` [5-(5-{2-[amino(nitroimino)methyl]carbonohydrazonoyl}-2-furyl)-2-hydroxybenzoic acid], the IC50 stood at 21.2 µM.
